# Data published in ChEMBL document CHEMBL4138123, “Design, synthesis and biological evaluation of novel pyrazolochalcones as potential modulators of PI3K/Akt/mTOR pathway and inducers of apoptosis in breast cancer cells” (Eur J Med Chem, 2017).
# What was measured:
# Format in all cases: functional
# NCI-H23 = assay: Cytotoxicity against human NCI-H23 cells assessed as cell growth at 10 uM after 48 hrs by sulforhodamine B assay relative to control; conditions: NCI-H23, 48 h, read-out: Activity
# OVCAR-5 = assay: Cytotoxicity against human OVCAR5 cells assessed as cell growth at 10 uM after 48 hrs by sulforhodamine B assay relative to control; conditions: OVCAR-5, 48 h, read-out: Activity
# UO-31 = assay: Cytotoxicity against human UO31 cells assessed as cell growth at 1 uM after 48 hrs by sulforhodamine B assay relative to control; conditions: UO-31, 48 h, read-out: Activity
# NCI-H460 [1] = assay: Cytotoxicity against human NCI-H460 cells assessed as growth inhibition after 48 hrs by sulforhodamine B assay; conditions: NCI-H460, 48 h
# NCI-H460 [2] = assay: Cytotoxicity against human NCI-H460 cells assessed as cell growth at 0.1 uM after 48 hrs by sulforhodamine B assay relative to control; conditions: NCI-H460, 48 h, read-out: Activity
# SK-MEL-5 = assay: Cytotoxicity against human SK-MEL-5 cells assessed as cell growth at 0.01 uM after 48 hrs by sulforhodamine B assay relative to control; conditions: SK-MEL-5, 48 h, read-out: Activity
# UACC-62 = assay: Cytotoxicity against human UACC62 cells assessed as growth inhibition after 48 hrs by sulforhodamine B assay; conditions: UACC-62, 48 h
# MOLT-4 = assay: Cytotoxicity against human MOLT4 cells assessed as cell growth at 1 uM after 48 hrs by sulforhodamine B assay relative to control; conditions: MOLT-4, 48 h, read-out: Activity
# TK-10 [3] = assay: Cytotoxicity against human TK10 cells assessed as cell growth at 0.1 uM after 48 hrs by sulforhodamine B assay relative to control; conditions: TK-10, 48 h, read-out: Activity
# HT-29 = assay: Cytotoxicity against human HT-29 cells assessed as growth inhibition after 48 hrs by sulforhodamine B assay; conditions: HT-29, 48 h
# K562 = assay: Cytotoxicity against human K562 cells assessed as cell growth at 0.01 uM after 48 hrs by sulforhodamine B assay relative to control; conditions: K562, 48 h, read-out: Activity
# COLO 205 = assay: Cytotoxicity against human COLO205 cells assessed as cell growth at 10 uM after 48 hrs by sulforhodamine B assay relative to control; conditions: COLO 205, 48 h, read-out: Activity
# HCC 2998 = assay: Cytotoxicity against human HCC2998 cells assessed as cell growth at 0.1 uM after 48 hrs by sulforhodamine B assay relative to control; conditions: HCC 2998, 48 h, read-out: Activity
# MDA-MB-231 = assay: Cytotoxicity against human MDA-MB-231 cells assessed as cell growth at 100 uM after 48 hrs by sulforhodamine B assay relative to control; conditions: MDA-MB-231, 48 h, read-out: Activity
# M14 = assay: Cytotoxicity against human M14 cells assessed as cell growth at 0.1 uM after 48 hrs by sulforhodamine B assay relative to control; conditions: M14, 48 h, read-out: Activity
# SK-OV-3 = assay: Cytotoxicity against human SKOV3 cells assessed as cell growth at 1 uM after 48 hrs by sulforhodamine B assay relative to control; conditions: SK-OV-3, 48 h, read-out: Activity
# U-251 = assay: Cytotoxicity against human U251 cells assessed as cell growth at 100 uM after 48 hrs by sulforhodamine B assay relative to control; conditions: U-251, 48 h, read-out: Activity
# NCI-H322M = assay: Cytotoxicity against human NCI-H322M cells assessed as cell growth at 100 uM after 48 hrs by sulforhodamine B assay relative to control; conditions: read-out: Activity
# SR = assay: Cytotoxicity against human SR cells assessed as cell growth at 100 uM after 48 hrs by sulforhodamine B assay relative to control; conditions: read-out: Activity
# UACC-257 [4] = assay: Cytotoxicity against human UACC257 cells assessed as cell growth at 10 uM after 48 hrs by sulforhodamine B assay relative to control; conditions: UACC-257, 48 h, read-out: Activity
# SF-539 = assay: Cytotoxicity against human SF539 cells assessed as growth inhibition after 48 hrs by sulforhodamine B assay; conditions: SF-539, 48 h
# TK-10 [5] = assay: Cytotoxicity against human TK10 cells assessed as cell growth at 100 uM after 48 hrs by sulforhodamine B assay relative to control; conditions: TK-10, 48 h, read-out: Activity
# MCF7 [6] = assay: Cytotoxicity against human MCF7 cells assessed as cell growth at 100 uM after 48 hrs by sulforhodamine B assay relative to control; conditions: MCF7, 48 h, read-out: Activity
# Hs-578T = assay: Cytotoxicity against human Hs 578T cells assessed as cell growth at 10 uM after 48 hrs by sulforhodamine B assay relative to control; conditions: read-out: Activity
# UACC-257 [7] = assay: Cytotoxicity against human UACC257 cells assessed as cell growth at 0.01 uM after 48 hrs by sulforhodamine B assay relative to control; conditions: UACC-257, 48 h, read-out: Activity
# A498 = assay: Cytotoxicity against human A498 cells assessed as cell growth at 0.01 uM after 48 hrs by sulforhodamine B assay relative to control; conditions: A498, 48 h, read-out: Activity
# DU-145 = assay: Cytotoxicity against human DU145 cells assessed as growth inhibition after 48 hrs by sulforhodamine B assay; conditions: DU-145, 48 h; for CC50: read-out: LC50 (the source's name)
# KM12 [8] = assay: Cytotoxicity against human KM12 cells assessed as cell growth at 10 uM after 48 hrs by sulforhodamine B assay relative to control; conditions: KM12, 48 h, read-out: Activity
# SF-268 = assay: Cytotoxicity against human SF268 cells assessed as cell growth at 100 uM after 48 hrs by sulforhodamine B assay relative to control; conditions: SF-268, 48 h, read-out: Activity
# HCT-116 = assay: Cytotoxicity against human HCT116 cells assessed as cell growth at 1 uM after 48 hrs by sulforhodamine B assay relative to control; conditions: HCT-116, 48 h, read-out: Activity
# PC-3 = assay: Cytotoxicity against human PC3 cells assessed as cell growth at 1 uM after 48 hrs by sulforhodamine B assay relative to control; conditions: PC-3, 48 h, read-out: Activity
# OVCAR-3 = assay: Cytotoxicity against human OVCAR3 cells assessed as cell growth at 0.01 uM after 48 hrs by sulforhodamine B assay relative to control; conditions: OVCAR-3, 48 h, read-out: Activity
# KM12 [9] = assay: Cytotoxicity against human KM12 cells assessed as cell growth at 100 uM after 48 hrs by sulforhodamine B assay relative to control; conditions: KM12, 48 h, read-out: Activity
# TK-10 [10] = assay: Cytotoxicity against human TK10 cells assessed as cell growth at 1 uM after 48 hrs by sulforhodamine B assay relative to control; conditions: TK-10, 48 h, read-out: Activity
# MCF7 [11] = assay: Cytotoxicity against human MCF7 cells assessed as cell growth at 1 uM after 48 hrs by sulforhodamine B assay relative to control; conditions: MCF7, 48 h, read-out: Activity
compound,measurement,setting,value
COc1ccc(C(=O)/C=C/c2cc(-c3cc(OC)c(OC)c(OC)c3)n[nH]2)cc1,growth at 10 µM,NCI-H23,2%
same,growth at 10 µM,OVCAR-5,-70%
same,growth at 1 µM,UO-31,77%
same,LC50,NCI-H460 [1],8.18 µM
same,TGI,NCI-H460 [1],3.75 µM
same,growth at 0.1 µM,NCI-H460 [2],102%
same,growth at 0.01 µM,SK-MEL-5,100%
same,TGI,UACC-62,3.65 µM
same,growth at 1 µM,MOLT-4,102%
same,growth at 0.1 µM,TK-10 [3],93%
same,TGI,HT-29,4.19 µM
same,growth at 0.01 µM,K562,97%
same,growth at 10 µM,COLO 205,-90%
same,growth at 0.1 µM,HCC 2998,97%
same,growth at 100 µM,MDA-MB-231,19%
same,growth at 0.1 µM,M14,97%
same,growth at 1 µM,SK-OV-3,98%
same,growth at 100 µM,U-251,-25%
same,growth at 100 µM,NCI-H322M,-31%
same,growth at 100 µM,SR,-5%
same,growth at 10 µM,UACC-257 [4],-65%
same,GI50,SF-539,1.62 µM
same,LC50 (concentration killing 50% of cells),SF-539,5.85 µM
same,TGI,SF-539,3.08 µM
same,growth at 100 µM,TK-10 [5],-20%
same,growth at 100 µM,MCF7 [6],-69%
same,growth at 10 µM,Hs-578T,13%
same,growth at 0.01 µM,UACC-257 [7],97%
same,growth at 0.01 µM,A498,98%
same,TGI,DU-145,2.83 µM
same,growth at 10 µM,KM12 [8],-88%
same,growth at 100 µM,SF-268,-37%
same,growth at 1 µM,HCT-116,72%
same,growth at 1 µM,PC-3,76%
same,growth at 0.01 µM,OVCAR-3,101%
same,growth at 100 µM,KM12 [9],-74%
same,growth at 1 µM,TK-10 [10],92%
same,growth at 1 µM,MCF7 [11],57%
COc1ccc(C(=O)/C=C/c2cc(-c3ccc4c(c3)OCO4)n[nH]2)cc1OC,growth at 10 µM,NCI-H23,28%
same,growth at 10 µM,OVCAR-5,17%
same,growth at 1 µM,UO-31,79%
same,LC50,NCI-H460 [1],9.07 µM
same,TGI,NCI-H460 [1],4.05 µM
same,growth at 0.1 µM,NCI-H460 [2],102%
same,growth at 0.01 µM,SK-MEL-5,96%
same,LC50,UACC-62,40.9 µM
same,TGI,UACC-62,14.8 µM
same,growth at 1 µM,MOLT-4,96%
same,growth at 0.1 µM,TK-10 [3],92%
same,LC50,HT-29,> 100 µM
same,TGI,HT-29,11.3 µM
same,growth at 0.01 µM,K562,96%
same,growth at 10 µM,COLO 205,14%
same,growth at 0.1 µM,HCC 2998,97%
same,growth at 100 µM,MDA-MB-231,-86%
same,growth at 0.1 µM,M14,98%
same,growth at 1 µM,SK-OV-3,99%
same,growth at 100 µM,U-251,-91%
same,growth at 100 µM,NCI-H322M,-90%
same,growth at 100 µM,SR,-35%
same,growth at 10 µM,UACC-257 [4],42%
same,LC50 (concentration killing 50% of cells),SF-539,11.9 µM
same,TGI,SF-539,4.47 µM
same,growth at 100 µM,TK-10 [5],-58%
same,growth at 100 µM,MCF7 [6],-48%
same,growth at 10 µM,Hs-578T,-9%
same,growth at 0.01 µM,UACC-257 [7],91%
same,growth at 0.01 µM,A498,78%
same,GI50,DU-145,1.86 µM
same,TGI,DU-145,4.27 µM
same,CC50,DU-145,9.8 µM
same,growth at 10 µM,KM12 [8],-2%
same,growth at 100 µM,SF-268,-74%
same,growth at 1 µM,HCT-116,87%
same,growth at 1 µM,PC-3,74%
same,growth at 0.01 µM,OVCAR-3,103%
same,growth at 100 µM,KM12 [9],-90%
same,growth at 1 µM,TK-10 [10],97%
same,growth at 1 µM,MCF7 [11],88%
COc1cc(-c2cc(/C=C/C(=O)c3ccc4c(c3)OCO4)[nH]n2)cc(OC)c1OC,growth at 10 µM,NCI-H23,63%
same,growth at 10 µM,OVCAR-5,16%
same,growth at 1 µM,UO-31,81%
same,LC50,NCI-H460 [1],> 100 µM
same,TGI,NCI-H460 [1],5.1 µM
same,growth at 0.1 µM,NCI-H460 [2],105%
same,growth at 0.01 µM,SK-MEL-5,98%
same,LC50,UACC-62,> 100 µM
same,TGI,UACC-62,> 100 µM
same,growth at 1 µM,MOLT-4,99%
same,growth at 0.1 µM,TK-10 [3],87%
same,LC50,HT-29,9.48 µM
same,TGI,HT-29,4.55 µM
same,growth at 0.01 µM,K562,100%
same,growth at 10 µM,COLO 205,-66%
same,growth at 0.1 µM,HCC 2998,102%
same,growth at 100 µM,MDA-MB-231,21%
same,growth at 0.1 µM,M14,97%
same,growth at 1 µM,SK-OV-3,102%
same,growth at 100 µM,U-251,-56%
same,growth at 100 µM,NCI-H322M,-9%
same,growth at 100 µM,SR,2%
same,growth at 10 µM,UACC-257 [4],2%
same,LC50 (concentration killing 50% of cells),SF-539,25.4 µM
same,TGI,SF-539,5.73 µM
same,growth at 100 µM,TK-10 [5],-47%
same,growth at 100 µM,MCF7 [6],3%
same,growth at 10 µM,Hs-578T,17%
same,growth at 0.01 µM,UACC-257 [7],86%
same,growth at 0.01 µM,A498,89%
same,TGI,DU-145,9.56 µM
same,CC50,DU-145,> 100 µM
same,growth at 10 µM,KM12 [8],-69%
same,growth at 100 µM,SF-268,-26%
same,growth at 1 µM,HCT-116,90%
same,growth at 1 µM,PC-3,86%
same,growth at 0.01 µM,OVCAR-3,104%
same,growth at 100 µM,KM12 [9],3%
same,growth at 1 µM,TK-10 [10],97%
same,growth at 1 µM,MCF7 [11],65%
